{
  "source": "PubChem BioAssay (NCI)",
  "assay_in_all_cases": "DTP human tumour cell line panel, 48 h",
  "key": {"IGROV1 ovarian": {"tested_on": "IGROV1 ovarian"}, "HT29 colon": {"tested_on": "HT29 colon"}, "M19-MEL melanoma": {"tested_on": "M19-MEL melanoma"}, "A549 NSCLC": {"tested_on": "A549 NSCLC"}, "HOP-92 NSCLC": {"tested_on": "HOP-92 NSCLC"}, "OVCAR-8 ovarian": {"tested_on": "OVCAR-8 ovarian"}, "SK-MEL-5 melanoma": {"tested_on": "SK-MEL-5 melanoma"}, "A498 renal": {"tested_on": "A498 renal"}, "SNB-78 CNS": {"tested_on": "SNB-78 CNS"}, "SF-268 CNS": {"tested_on": "SF-268 CNS"}, "KM12 colon": {"tested_on": "KM12 colon"}, "DMS 114 small cell lung": {"tested_on": "DMS 114 small cell lung"}, "SK-MEL-28 melanoma": {"tested_on": "SK-MEL-28 melanoma"}, "K-562 leukemia": {"tested_on": "K-562 leukemia"}, "LOX IMVI melanoma": {"tested_on": "LOX IMVI melanoma"}, "RXF-631 renal": {"tested_on": "RXF-631 renal"}, "OVCAR-3 ovarian": {"tested_on": "OVCAR-3 ovarian"}, "HOP-62 NSCLC": {"tested_on": "HOP-62 NSCLC"}, "CCRF-CEM leukemia": {"tested_on": "CCRF-CEM leukemia"}, "HL-60(TB) leukemia": {"tested_on": "HL-60(TB) leukemia"}, "SN12C renal": {"tested_on": "SN12C renal"}, "M14 melanoma": {"tested_on": "M14 melanoma"}, "NCI-H460 lung": {"tested_on": "NCI-H460 lung"}, "DMS 273 small cell lung": {"tested_on": "DMS 273 small cell lung"}, "U251 CNS": {"tested_on": "U251 CNS"}, "SNB-75 CNS": {"tested_on": "SNB-75 CNS"}, "TK-10 renal": {"tested_on": "TK-10 renal"}, "SNB-19 CNS": {"tested_on": "SNB-19 CNS"}, "786-0 renal": {"tested_on": "786-0 renal"}, "EKVX NSCLC": {"tested_on": "EKVX NSCLC"}, "OVCAR-5 ovarian": {"tested_on": "OVCAR-5 ovarian"}, "RXF 393 renal": {"tested_on": "RXF 393 renal"}, "MOLT-4 leukemia": {"tested_on": "MOLT-4 leukemia"}, "HCT-116 colon": {"tested_on": "HCT-116 colon"}, "UACC-62 melanoma": {"tested_on": "UACC-62 melanoma"}, "ACHN renal": {"tested_on": "ACHN renal"}, "DLD-1 colon": {"tested_on": "DLD-1 colon"}, "SF-295 CNS": {"tested_on": "SF-295 CNS"}, "SK-MEL-2 melanoma": {"tested_on": "SK-MEL-2 melanoma"}, "HCT-15 colon": {"tested_on": "HCT-15 colon"}, "RPMI-8226 leukemia": {"tested_on": "RPMI-8226 leukemia"}, "NCI-H226 lung": {"tested_on": "NCI-H226 lung"}, "SK-OV-3 ovarian": {"tested_on": "SK-OV-3 ovarian"}, "UACC-257 melanoma": {"tested_on": "UACC-257 melanoma"}, "XF 498 CNS": {"tested_on": "XF 498 CNS"}, "HOP-18 NSCLC": {"tested_on": "HOP-18 NSCLC"}, "UO-31 renal": {"tested_on": "UO-31 renal"}, "HCC-2998 colon": {"tested_on": "HCC-2998 colon"}, "NCI-H23 lung": {"tested_on": "NCI-H23 lung"}, "SR leukemia": {"tested_on": "SR leukemia"}, "OVCAR-4 ovarian": {"tested_on": "OVCAR-4 ovarian"}, "LXFL 529 NSCLC": {"tested_on": "LXFL 529 NSCLC"}, "COLO 205 colon": {"tested_on": "COLO 205 colon"}, "KM20L2 colon": {"tested_on": "KM20L2 colon"}, "MALME-3M melanoma": {"tested_on": "MALME-3M melanoma"}, "SF-539 CNS": {"tested_on": "SF-539 CNS"}, "SW-620 colon": {"tested_on": "SW-620 colon"}},
  "note": "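Cultured in 96-well plates, cells were exposed to test compound for 48 hours across five concentrations. Definition used: TGI = concentration required for complete inhibition of growth.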",
  "data": [
    {"smiles": "O=C1CC2CCN(C(=O)c3ccccc3)CC2CCN1", "note": "(configuration not stated)", "values": [
      {"measurement": "TGI", "setting": "IGROV1 ovarian", "result": "> 100", "unit": "µM"},
      {"measurement": "TGI", "setting": "HT29 colon", "result": "> 100", "unit": "µM"},
      {"measurement": "TGI", "setting": "M19-MEL melanoma", "result": "> 100", "unit": "µM"},
      {"measurement": "TGI", "setting": "A549 NSCLC", "result": "> 100", "unit": "µM"},
      {"measurement": "TGI", "setting": "HOP-92 NSCLC", "result": "> 100", "unit": "µM"},
      {"measurement": "TGI", "setting": "OVCAR-8 ovarian", "result": "> 100", "unit": "µM"},
      {"measurement": "TGI", "setting": "SK-MEL-5 melanoma", "result": "> 100", "unit": "µM"},
      {"measurement": "TGI", "setting": "A498 renal", "result": "> 100", "unit": "µM"},
      {"measurement": "TGI", "setting": "SNB-78 CNS", "result": "> 100", "unit": "µM"},
      {"measurement": "TGI", "setting": "SF-268 CNS", "result": "> 100", "unit": "µM"},
      {"measurement": "TGI", "setting": "KM12 colon", "result": "> 100", "unit": "µM"},
      {"measurement": "TGI", "setting": "DMS 114 small cell lung", "result": "> 100", "unit": "µM"},
      {"measurement": "TGI", "setting": "SK-MEL-28 melanoma", "result": "> 100", "unit": "µM"},
      {"measurement": "TGI", "setting": "K-562 leukemia", "result": "> 100", "unit": "µM"},
      {"measurement": "TGI", "setting": "LOX IMVI melanoma", "result": "> 100", "unit": "µM"},
      {"measurement": "TGI", "setting": "RXF-631 renal", "result": "[…]"},
      {"measurement": "TGI", "setting": "OVCAR-3 ovarian", "result": "> 100", "unit": "µM"},
      {"measurement": "TGI", "setting": "HOP-62 NSCLC", "result": "> 100", "unit": "µM"},
      {"measurement": "TGI", "setting": "CCRF-CEM leukemia", "result": "> 100", "unit": "µM"},
      {"measurement": "TGI", "setting": "HL-60(TB) leukemia", "result": "> 100", "unit": "µM"},
      {"measurement": "TGI", "setting": "SN12C renal", "result": "> 100", "unit": "µM"},
      {"measurement": "TGI", "setting": "M14 melanoma", "result": "> 100", "unit": "µM"},
      {"measurement": "TGI", "setting": "NCI-H460 lung", "result": "> 100", "unit": "µM"},
      {"measurement": "TGI", "setting": "DMS 273 small cell lung", "result": "> 100", "unit": "µM"},
      {"measurement": "TGI", "setting": "U251 CNS", "result": "> 100", "unit": "µM"},
      {"measurement": "TGI", "setting": "SNB-75 CNS", "result": "> 100", "unit": "µM"},
      {"measurement": "TGI", "setting": "TK-10 renal", "result": "> 100", "unit": "µM"},
      {"measurement": "TGI", "setting": "SNB-19 CNS", "result": "> 100", "unit": "µM"},
      {"measurement": "TGI", "setting": "786-0 renal", "result": "> 100", "unit": "µM"},
      {"measurement": "TGI", "setting": "EKVX NSCLC", "result": "> 100", "unit": "µM"},
      {"measurement": "TGI", "setting": "OVCAR-5 ovarian", "result": "> 100", "unit": "µM"},
      {"measurement": "TGI", "setting": "RXF 393 renal", "result": "> 100", "unit": "µM"},
      {"measurement": "TGI", "setting": "MOLT-4 leukemia", "result": "> 100", "unit": "µM"},
      {"measurement": "TGI", "setting": "HCT-116 colon", "result": "> 100", "unit": "µM"},
      {"measurement": "TGI", "setting": "UACC-62 melanoma", "result": "> 100", "unit": "µM"},
      {"measurement": "TGI", "setting": "ACHN renal", "result": "> 100", "unit": "µM"},
      {"measurement": "TGI", "setting": "DLD-1 colon", "result": "> 100", "unit": "µM"},
      {"measurement": "TGI", "setting": "SF-295 CNS", "result": "> 100", "unit": "µM"},
      {"measurement": "TGI", "setting": "SK-MEL-2 melanoma", "result": 60.2, "unit": "µM"},
      {"measurement": "TGI", "setting": "HCT-15 colon", "result": "> 100", "unit": "µM"},
      {"measurement": "TGI", "setting": "RPMI-8226 leukemia", "result": "> 100", "unit": "µM"},
      {"measurement": "TGI", "setting": "NCI-H226 lung", "result": "> 100", "unit": "µM"},
      {"measurement": "TGI", "setting": "SK-OV-3 ovarian", "result": "> 100", "unit": "µM"},
      {"measurement": "TGI", "setting": "UACC-257 melanoma", "result": "> 100", "unit": "µM"},
      {"measurement": "TGI", "setting": "XF 498 CNS", "result": "> 100", "unit": "µM"},
      {"measurement": "TGI", "setting": "HOP-18 NSCLC", "result": "> 100", "unit": "µM"},
      {"measurement": "TGI", "setting": "UO-31 renal", "result": "> 100", "unit": "µM"},
      {"measurement": "TGI", "setting": "HCC-2998 colon", "result": "> 100", "unit": "µM"},
      {"measurement": "TGI", "setting": "NCI-H23 lung", "result": "> 100", "unit": "µM"},
      {"measurement": "TGI", "setting": "SR leukemia", "result": "> 100", "unit": "µM"},
      {"measurement": "TGI", "setting": "OVCAR-4 ovarian", "result": "> 100", "unit": "µM"},
      {"measurement": "TGI", "setting": "LXFL 529 NSCLC", "result": "> 100", "unit": "µM"},
      {"measurement": "TGI", "setting": "COLO 205 colon", "result": "> 100", "unit": "µM"},
      {"measurement": "TGI", "setting": "KM20L2 colon", "result": "> 100", "unit": "µM"},
      {"measurement": "TGI", "setting": "MALME-3M melanoma", "result": "> 100", "unit": "µM"},
      {"measurement": "TGI", "setting": "SF-539 CNS", "result": "> 100", "unit": "µM"},
      {"measurement": "TGI", "setting": "SW-620 colon", "result": "> 100", "unit": "µM"}
    ]}
  ]
}
